Source: publication PMC12206033, “Selective inhibition of TRPV3 channel by natural rosmarinic acid and its analogs for alleviation of skin lesions through downregulation of NF-κB pathway” (The Journal of Biological Chemistry, 2025)

Assays:
mTRPV2 = target: T1, mTRPV2 (Mus musculus, UniProt Q9WTR1); experiment: whole-cell patch-clamp of mTRPV2 currents activated by 2-APB; assay type: cell-based; conditions: ROSA 50 μM; agonist 2-APB 2 mM; read-out: inhibition of TRPV2 currents
T1 construct: expressed in transfected cells; host or cells: HEK293T
T1 sequence (Q9WTR1 1-756): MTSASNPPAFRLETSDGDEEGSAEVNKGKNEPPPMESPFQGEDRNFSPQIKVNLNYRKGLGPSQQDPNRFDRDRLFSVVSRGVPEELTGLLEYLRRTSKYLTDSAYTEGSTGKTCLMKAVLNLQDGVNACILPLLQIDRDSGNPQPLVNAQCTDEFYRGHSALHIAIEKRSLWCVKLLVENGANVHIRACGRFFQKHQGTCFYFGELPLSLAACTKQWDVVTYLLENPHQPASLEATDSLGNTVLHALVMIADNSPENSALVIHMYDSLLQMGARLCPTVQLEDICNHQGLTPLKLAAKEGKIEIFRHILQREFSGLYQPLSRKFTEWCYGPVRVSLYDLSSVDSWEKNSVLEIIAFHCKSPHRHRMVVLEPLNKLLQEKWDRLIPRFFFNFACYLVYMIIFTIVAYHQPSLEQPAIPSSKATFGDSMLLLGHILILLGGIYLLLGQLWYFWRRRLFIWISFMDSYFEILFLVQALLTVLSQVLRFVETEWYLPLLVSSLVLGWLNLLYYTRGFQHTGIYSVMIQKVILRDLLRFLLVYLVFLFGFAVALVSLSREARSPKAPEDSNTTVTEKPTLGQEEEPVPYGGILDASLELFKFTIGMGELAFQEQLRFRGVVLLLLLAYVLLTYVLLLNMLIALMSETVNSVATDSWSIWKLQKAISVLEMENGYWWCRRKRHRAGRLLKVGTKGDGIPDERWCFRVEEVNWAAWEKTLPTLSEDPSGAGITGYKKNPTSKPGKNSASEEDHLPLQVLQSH
Description: (§1) HEK293T cell line was obtained from the Cell Resource Center, Peking Union Medical College. HEK293T cells were maintained in Dulbecco’s modified Eagle’s medium (DMEM, Gibco) supplemented with 10% fetal bovine serum at 37 °C with 5% CO2. […] The next day, determine the plasmid transfection status by observing green fluorescence based on expression of enhanced GFP as an indicator. […] When conducting experiments on HEK293T cells transfected with G573S point mutant TRPV3 plasmid, we replaced culture medium with or without compounds after 4 h of transfection and then observed green fluorescence of HEK293T cell after 10 h. As for the relative fluorescence intensity, we convert the image to 8 bit grayscale using ImageJ (Https://imagej.net/software/fiji/downloads) and set an appropriate threshold value to reduce background noise and enhance the image contrast.
(§2) All patch-clamp recordings were conducted 16 to 24 h after transfection using an EPC10 amplifier powered by PatchMaster software (HEKA) (https://www.heka.com/downloads/downloads_main.html#down_patchmaster) at room temperature. […] Currents were recorded at a potential ramp from −100 mV to +100 mV for 1000 ms with 1000-ms intervals (for whole-cell recordings) or a persistent potential of −60 mV (inside-out patch recordings). […]

hTRPA1 = target: T2, hTRPA1 (Homo sapiens, UniProt O75762); experiment: whole-cell patch-clamp of hTRPA1 currents activated by allyl isothiocyanate; assay type: cell-based; conditions: ROSA 50 μM; agonist allyl isothiocyanate 300 μM; read-out: inhibition of TRPA1 currents
T2 construct: expressed in transfected cells; host or cells: HEK293T
Description: as §1, §2

[1] = tested on: TRPV3, IL-6, TNF-α, and p-P65 protein expressions; experiment: Western blot of TRPV3 and NF-κB pathway proteins in mouse ear tissues; assay type: in vivo; conditions: topical ROSA 0.1, 1 and 10 mM; mouse ear tissues; day 5
Description: Skin sensitizer Car was dissolved in saline solution containing 30% ethanol. The dorsal skin or ear of mice was swabbed with 3% Car for four consecutive days. To investigate the effects of ROSA, it was diluted to concentration of 0.1/1/10 mM with saline and topically applied on the ear and dorsal skin once a day for 4 days. The control group only received swabs with the solvent.
Skin or ear skin tissues were homogenized in radioimmunoprecipitation assay buffer (Thermo Fisher Scientific) containing protease inhibitors at a ratio of 100:1 per 10 mg tissue and centrifuged at 15,000 rpm for 15 min. The protein concentration was quantified using a bicinchoninic acid kit (Thermo Fisher Scientific), followed by SDS-PAGE for Western blot analysis. Protein transfer was performed at 150 mA for 90 min, and the transferred membranes (Millipore) were incubated with primary antibodies (TRPV3 antibody, 1:1000, TNF-α antibody, 1:1000, IL-6 antibody, 1:2500, P65 antibody, 1:1000 and p-P65 antibody, 1:1000) in 5% skim milk (Becton, Dickinson and Company). […] Images were quantified using the Image Lab software (https://www.bio-rad.com/zh-cn/product/image-lab-software?ID=KRE6P5E8Z).

T2 sequence (O75762 whole entry): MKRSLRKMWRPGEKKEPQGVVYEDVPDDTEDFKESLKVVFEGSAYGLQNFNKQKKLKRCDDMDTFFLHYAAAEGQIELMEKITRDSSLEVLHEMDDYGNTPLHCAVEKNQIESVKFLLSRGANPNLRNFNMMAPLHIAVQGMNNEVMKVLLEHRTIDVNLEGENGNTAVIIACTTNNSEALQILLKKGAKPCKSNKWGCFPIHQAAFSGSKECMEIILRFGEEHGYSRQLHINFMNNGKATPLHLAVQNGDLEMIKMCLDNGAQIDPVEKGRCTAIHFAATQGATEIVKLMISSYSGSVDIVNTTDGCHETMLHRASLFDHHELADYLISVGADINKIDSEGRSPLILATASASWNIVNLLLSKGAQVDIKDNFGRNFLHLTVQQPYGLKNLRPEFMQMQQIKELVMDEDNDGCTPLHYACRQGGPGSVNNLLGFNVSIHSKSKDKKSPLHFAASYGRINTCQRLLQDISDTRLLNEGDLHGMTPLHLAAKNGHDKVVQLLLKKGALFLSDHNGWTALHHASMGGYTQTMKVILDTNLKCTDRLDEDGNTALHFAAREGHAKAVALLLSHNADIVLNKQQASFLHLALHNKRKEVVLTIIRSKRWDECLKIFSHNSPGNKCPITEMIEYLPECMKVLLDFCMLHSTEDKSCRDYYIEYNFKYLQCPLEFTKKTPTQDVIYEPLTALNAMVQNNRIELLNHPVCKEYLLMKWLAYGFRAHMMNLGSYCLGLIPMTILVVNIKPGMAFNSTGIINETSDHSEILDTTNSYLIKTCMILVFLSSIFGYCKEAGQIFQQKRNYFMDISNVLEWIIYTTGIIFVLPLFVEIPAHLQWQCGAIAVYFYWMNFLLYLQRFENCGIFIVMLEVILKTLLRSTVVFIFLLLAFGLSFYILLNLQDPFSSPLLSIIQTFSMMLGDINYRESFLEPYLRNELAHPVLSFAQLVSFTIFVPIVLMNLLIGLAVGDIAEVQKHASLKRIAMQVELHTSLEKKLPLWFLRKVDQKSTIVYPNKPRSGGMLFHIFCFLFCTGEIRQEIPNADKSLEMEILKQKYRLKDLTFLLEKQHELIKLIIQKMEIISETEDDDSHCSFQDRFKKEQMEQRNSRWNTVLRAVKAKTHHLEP

SMILES: O=C(/C=C/c1ccc(O)c(O)c1)O[C@H](Cc1ccc(O)c(O)c1)C(=O)O [ROSA, rosmarinic acid]
- inhibition at 50 µM (mTRPV2): 21 ± 6.1%
- inhibition at 50 µM (hTRPA1): 4.5 ± 3.6%
- protein expressions of TRPV3, IL-6, TNF-α, and p-P65 induced by Car [1]: downregulated the upregulation
